In ChEMBL document CHEMBL1201862, “PubChem BioAssay data set” (2004):
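48-hour exposure; five concentrations; linearly interpolated endpoints. At the GI50, growth is halved.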 Activity calls are given as the source filed them. Rule as the data show it: active = GI50 up to about 1.1 µM and inactive = higher.

Columns and labels:
Experiment in all cases: NCI-60 cell line screen, 48 h
786-0 = tested on: 786-0
DLD-1 = tested on: DLD-1
DMS-114 = tested on: DMS-114
DMS-273 = tested on: DMS-273
HCC 2998 = tested on: HCC 2998
HL-60 = tested on: HL-60
IGROV-1 = tested on: IGROV-1
LXFL 529 = tested on: LXFL 529
M19-MEL = tested on: M19-MEL
NCI-H522 = tested on: NCI-H522
RPMI-8226 = tested on: RPMI-8226
SF-539 = tested on: SF-539
SNB-19 = tested on: SNB-19
SNB-78 = tested on: SNB-78
XF498 = tested on: XF498

| SMILES | GI50 (786-0) | GI50 (DLD-1) | GI50 (DMS-114) | GI50 (DMS-273) | GI50 (HCC 2998) | GI50 (HL-60) | GI50 (IGROV-1) | GI50 (LXFL 529) | GI50 (M19-MEL) | GI50 (NCI-H522) | GI50 (RPMI-8226) | GI50 (SF-539) | GI50 (SNB-19) | GI50 (SNB-78) | GI50 (XF498) |
| --- | --- | --- | --- | --- | --- | --- | --- | --- | --- | --- | --- | --- | --- | --- | --- |
| N#CC(C#N)=C1CCC2C(=C(C#N)C#N)CCC12 (stereo unspecified) | > 100 µM (inactive) | > 100 µM (inactive) | > 100 µM (inactive) | > 100 µM (inactive) | > 100 µM (inactive) | > 100 µM (inactive) | > 100 µM (inactive) | > 100 µM (inactive) | > 100 µM (inactive) | > 100 µM (inactive) | > 100 µM (inactive) | > 100 µM (inactive) | > 100 µM (inactive) | > 100 µM (inactive) | > 100 µM (inactive) |
| COc1ccc(Nc2cnc3cc(N)ccc3n2)cc1OC | – | > 100 µM (inactive) | 47 µM (inactive) | 56.2 µM (inactive) | 29.2 µM (inactive) | 26.7 µM (inactive) | > 100 µM (inactive) | 13.2 µM (inactive) | > 100 µM (inactive) | – | 23.9 µM (inactive) | – | – | – | 54.6 µM (inactive) |
| CSc1nc2c(nc(N)n2C2OCC(O)C(O)C2O)c(=O)[nH]1 (stereo unspecified) | > 100 µM (inactive) | > 100 µM (inactive) | > 100 µM (inactive) | – | > 100 µM (inactive) | > 100 µM (inactive) | > 100 µM (inactive) | > 100 µM (inactive) | > 100 µM (inactive) | > 100 µM (inactive) | – | > 100 µM (inactive) | > 100 µM (inactive) | > 100 µM (inactive) | > 100 µM (inactive) |
| CC1SC2=NC3=C(c4ccccc4C3=O)C(c3ccccc3Cl)N2C1=O (stereo unspecified) | > 100 µM (inactive) | > 100 µM (inactive) | > 100 µM (inactive) | > 100 µM (inactive) | > 100 µM (inactive) | > 100 µM (inactive) | > 100 µM (inactive) | > 100 µM (inactive) | > 100 µM (inactive) | 30.8 µM (inactive) | 58.5 µM (inactive) | > 100 µM (inactive) | > 100 µM (inactive) | – | > 100 µM (inactive) |
| COc1ccc(-c2cc(N3CCN(c4ccccc4)CC3)c(C#N)c(=O)o2)cc1 | – | 57 µM (inactive) | 22.1 µM (inactive) | 40 µM (inactive) | 65.6 µM (inactive) | 60.7 µM (inactive) | 24.8 µM (inactive) | 27.3 µM (inactive) | – | – | 62.5 µM (inactive) | 11.3 µM (inactive) | 8.49 µM (inactive) | 22.6 µM (inactive) | 6.59 µM (inactive) |
| O=C(O)C1CC2C=CCC(C2)C1 (stereo unspecified) | > 100 µM (inactive) | > 100 µM (inactive) | > 100 µM (inactive) | > 100 µM (inactive) | – | > 100 µM (inactive) | > 100 µM (inactive) | > 100 µM (inactive) | > 100 µM (inactive) | > 100 µM (inactive) | > 100 µM (inactive) | – | > 100 µM (inactive) | > 100 µM (inactive) | > 100 µM (inactive) |
| CC(C)OP(=O)(OC(C)C)/C(F)=N/Nc1ccc([N+](=O)[O-])cc1 | – | > 100 µM (inactive) | > 100 µM (inactive) | > 100 µM (inactive) | > 100 µM (inactive) | > 100 µM (inactive) | > 100 µM (inactive) | > 100 µM (inactive) | > 100 µM (inactive) | > 100 µM (inactive) | > 100 µM (inactive) | > 100 µM (inactive) | > 100 µM (inactive) | – | > 100 µM (inactive) |
| Cc1c2ccncc2c(C)c2c1[nH]c1ccc(OCCN(C)C)cc12 | – | 0.0893 µM (active) | – | 0.0998 µM (active) | 0.22 µM (active) | 0.136 µM (active) | 0.388 µM (active) | – | 0.582 µM (active) | 0.391 µM (active) | 0.0638 µM (active) | 0.832 µM (active) | 0.256 µM (active) | 1.13 µM (inactive) | 0.807 µM (active) |
| O=C(O)C(SC(=S)c1ccc(C(=S)SC(C(=O)O)c2ccccc2)cc1)c1ccccc1 (stereo unspecified) | 40.9 µM (inactive) | > 100 µM (inactive) | 35 µM (inactive) | 47.2 µM (inactive) | > 100 µM (inactive) | > 100 µM (inactive) | > 100 µM (inactive) | 50.8 µM (inactive) | – | – | 42.8 µM (inactive) | > 100 µM (inactive) | 46.6 µM (inactive) | > 100 µM (inactive) | > 100 µM (inactive) |
| c1ccc(COc2cccc3ccc[n+](Cc4ccccc4)c23)cc1 | 13.4 µM (inactive) | 11.5 µM (inactive) | 2.99 µM (inactive) | 3.8 µM (inactive) | 13.1 µM (inactive) | 1.93 µM (inactive) | 3.03 µM (inactive) | 3.62 µM (inactive) | 3.59 µM (inactive) | 1.95 µM (inactive) | 2.77 µM (inactive) | 7.82 µM (inactive) | 3.52 µM (inactive) | – | 11.2 µM (inactive) |
| COC1(O)c2cccc(Cl)c2C(=O)N1C1(C(N)=O)CCCCC1 (stereo unspecified) | – | > 100 µM (inactive) | > 100 µM (inactive) | > 100 µM (inactive) | > 100 µM (inactive) | > 100 µM (inactive) | > 100 µM (inactive) | – | > 100 µM (inactive) | > 100 µM (inactive) | > 100 µM (inactive) | > 100 µM (inactive) | > 100 µM (inactive) | > 100 µM (inactive) | > 100 µM (inactive) |
| COc1cc(C(=O)CC2OC(=O)C(Cl)=C2Cl)ccc1Cl (stereo unspecified) | – | > 100 µM (inactive) | > 100 µM (inactive) | > 100 µM (inactive) | > 100 µM (inactive) | > 100 µM (inactive) | > 100 µM (inactive) | > 100 µM (inactive) | > 100 µM (inactive) | > 100 µM (inactive) | > 100 µM (inactive) | > 100 µM (inactive) | > 100 µM (inactive) | > 100 µM (inactive) | > 100 µM (inactive) |
